# Measurements taken from patent US10683272B2 (THE JOHNS HOPKINS UNIVERSITY, priority 2014, dated 2020).
# Where “and” joins values, the source holds several entries; their conditions need not be identical. Identical values can stand only once.
# Test: radiation dosimetry (OLINDA/EXM) from baboon PET data
# Assay type: Reference Adult Male based on baboon PET imaging data
# Description: For each time-point, the activity concentration (in Bq/cm^3) was measured in each of the 14 delineated organs and multiplied by the organ volume to obtain the total activity per time point per organ. The measured values were then decay-corrected and divided by the baboon organ mass, determined by the CT density and volume from the drawn contours, and the injected radioactivity to obtain the fraction of initial radioactivity per gram (FIA/g) for each time point and each organ. The baboon FIA/g values were then converted to human FIA (per organ) using the following equation (Schwartz et al., 2011; Woodard et al., 1975): […]
# That approach assumes that the concentration of activity in a particular tissue relative to the overall concentration in the whole body is preserved across species (i.e., organ concentration/total body concentration is the same for baboon and man). The resulting human FIA values were plotted as a function of time (nine data points) for each organ and fit to a bi-exponential expression: FIA(t)=A1.e^−(λ1^bio^.t)+A2.e^−(Δ2^bio^.t) (2)
# where A1, A2, λ1bio, and λ2bio are fit parameters. The sum of A1 and A2 give the back-extrapolated, time-zero fraction of administered radioactivity in each organ, and λ1bio and λ2bio are the biological clearance constants. The equation for the time-integrated activity coefficient [TIAC, previously known as residence time (Bolch et al., 2009) for each source organ was obtained, as its name implies, by integrating equation (2) and introducing a physical decay term, λφ, which depends on the isotope used:
# TIACs were calculated for ^90Y, ^177Lu and ^86Y, with their corresponding physical decay constants: ^90Y λφ=0.01083 h^−1 (T1/2=64.0 h); ^177Lu λφ=0.00429 h^−1 (T1/2=161.52 h) and ^86Y λφ=0.04702 h^−1 (T1/2=14.74 h), respectively voiding. Radiation absorbed doses were obtained by converting time-integrated activity to absorbed doses according to the MIRD absorbed fraction methodology (Bolch et al., 2009) through the use of the OLINDA/EXM software (Stabin et al., 2005). The TIAC for the urinary bladder was obtained using the MIRD bladder model implemented in OLINDA/EXM. Input to that model requires the whole-body TIAC, which was obtained from the equation FIA(t)=A. e^(−λ^bio^t) fitted to whole-body retention kinetics. The voiding interval was set to 2 h. The TIACs were then input into OLINDA/EXM (Stabin et al., 2005), and the resulting absorbed dose per unit of radioactivity obtained for the 14 organs. The specific kidney model in OLINDA/EXM was used to obtain the renal cortex dose values. The absorbed dose from organs external to the kidney was added to the renal cortex dose calculated from the internal kidney model. The specific prostate model was used for prostate self-dose, and external dose to the bladder was added as a surrogate for the whole body to prostate dose. The self-dose component of the absorbed dose per unit activity for the salivary glands was obtained using 3D-RD Monte Carlo (EGSnrc) and a human CT with delineated salivary glands. The cross-dose component was taken by assuming the same cross-dose for a like-sized organ (pancreas).
# Measured activity concentration (in Bq/cm^3) values per time point per organ were decay-corrected and divided by the baboon organ mass, determined by the CT density and volume from the drawn contours, and the injected radioactivity to obtain the fraction of initial radioactivity per gram (FIA/g) for each time point and each organ. The baboon FIA/g values were then converted to human FIA (per organ) using the related equation (Olszewski et al., 2004; Schwartz et al., 2011). The resulting human FIA values were then plotted as a function of time and fit to a bi-exponential expression and the value for the time-integrated activity coefficient (TIAC, previously known as residence time (Woodard et al., 1975)) for each source organ was calculated. […]
structure (smiles),measurement,setting,value
O=C([O-])CN1CCN(CC(=O)[O-])CCN(CC(=O)[O-])C(Cc2ccc(NC(=S)NCCCCNC(=O)CCCCCCC(=O)NCCCC[C@H](NC(=O)N[C@@H](CCC(=O)O)C(=O)O)C(=O)O)cc2)CN(CC(=O)[O-])CC1.[86Y+3] (stereo partly drawn) [^86Y-6],"Organ absorbed dose, Testes",^90Y,3.46E−02 mGy/MBq
same,"Organ absorbed dose, Thymus",^90Y,3.46E−02 mGy/MBq
same,"Organ absorbed dose, Thyroid",^90Y,3.46E−02 mGy/MBq
same,"Organ absorbed dose, ULI wall",^90Y,6.29E−02 mGy/MBq
same,"Organ absorbed dose, Urinary bladder wall",^90Y,1.25 mGy/MBq
same,"Organ absorbed dose, Uterus",^90Y,3.46E−02 mGy/MBq
same,"Time-integrated activity coefficient (residence time), Brain",^90Y,1.79E−02 MBq-h/MBq
same,"Time-integrated activity coefficient (residence time), Heart contents",^90Y,3.15E−02 MBq-h/MBq
same,"Time-integrated activity coefficient (residence time), Kidneys",^90Y,6.43E−01 MBq-h/MBq
same,"Time-integrated activity coefficient (residence time), Liver",^90Y,1.77E−01 MBq-h/MBq
same,"Time-integrated activity coefficient (residence time), Lungs",^90Y,1.22E−01 MBq-h/MBq
same,"Time-integrated activity coefficient (residence time), Muscle",^90Y,6.85E−01 MBq-h/MBq
same,"Time-integrated activity coefficient (residence time), Pancreas",^90Y,8.42E−03 MBq-h/MBq
same,"Time-integrated activity coefficient (residence time), Prostate",^90Y,1.42E−03 MBq-h/MBq
same,"Time-integrated activity coefficient (residence time), Remainder",^90Y,4.74 MBq-h/MBq
same,"Time-integrated activity coefficient (residence time), Renal cortex",^90Y,5.27E−01 MBq-h/MBq
same,"Time-integrated activity coefficient (residence time), Salivary Glands",^90Y,4.88E−02 MBq-h/MBq
same,"Time-integrated activity coefficient (residence time), Small intestine",^90Y,1.32E−02 MBq-h/MBq
same,"Time-integrated activity coefficient (residence time), Spleen",^90Y,1.15E−02 MBq-h/MBq
same,"Time-integrated activity coefficient (residence time), Stomach",^90Y,8.06E−03 MBq-h/MBq
same,"Time-integrated activity coefficient (residence time), ULI",^90Y,2.51E−02 MBq-h/MBq
same,"Time-integrated activity coefficient (residence time), Ur. bladder contents",^90Y,9.54E−01 MBq-h/MBq
same,"Organ absorbed dose, Adrenals",^177Lu,6.96E−03 mGy/MBq
same,"Organ absorbed dose, Brain",^177Lu,1.48E−03 mGy/MBq
same,"Organ absorbed dose, Breasts",^177Lu,6.08E−03 mGy/MBq
same,"Organ absorbed dose, Gallbladder wall",^177Lu,6.79E−03 mGy/MBq
same,"Organ absorbed dose, Heart wall",^177Lu,9.54E−03 mGy/MBq
same,"Organ absorbed dose, Kidneys",^177Lu,2.10E−01 mGy/MBq
same,"Organ absorbed dose, LLI wall",^177Lu,7.06E−03 mGy/MBq
same,"Organ absorbed dose, Liver",^177Lu,9.37E−03 mGy/MBq
same,"Organ absorbed dose, Lungs",^177Lu,1.16E−02 mGy/MBq
same,"Organ absorbed dose, Muscle",^177Lu,3.26E−03 mGy/MBq
same,"Organ absorbed dose, Osteogenic cells",^177Lu,1.94E−02 mGy/MBq
same,"Organ absorbed dose, Ovaries",^177Lu,7.05E−03 mGy/MBq
same,"Organ absorbed dose, Pancreas",^177Lu,9.34E−03 mGy/MBq
same,"Organ absorbed dose, Prostate",^177Lu,7.94E−03 mGy/MBq
same,"Organ absorbed dose, Red marrow",^177Lu,5.04E−03 mGy/MBq
same,"Organ absorbed dose, Renal cortex",^177Lu,0.245 mGy/MBq and 2.45E−01 mGy/MBq
same,"Organ absorbed dose, Salivary glands",^177Lu,4.76E−02 mGy/MBq
same,"Organ absorbed dose, Skin",^177Lu,6.01E−03 mGy/MBq
same,"Organ absorbed dose, Small intestine",^177Lu,8.30E−03 mGy/MBq
same,"Organ absorbed dose, Spleen",^177Lu,7.16E−03 mGy/MBq
same,"Organ absorbed dose, Stomach wall",^177Lu,7.88E−03 mGy/MBq
same,"Organ absorbed dose, Testes",^177Lu,6.56E−03 mGy/MBq
same,"Organ absorbed dose, Thymus",^177Lu,6.29E−03 mGy/MBq
same,"Organ absorbed dose, Thyroid",^177Lu,6.26E−03 mGy/MBq
same,"Organ absorbed dose, ULI wall",^177Lu,1.16E−02 mGy/MBq
same,"Organ absorbed dose, Urinary bladder wall",^177Lu,2.14E−01 mGy/MBq
same,"Organ absorbed dose, Uterus",^177Lu,7.76E−03 mGy/MBq
same,"Time-integrated activity coefficient (residence time), Brain",^177Lu,1.89E−02 MBq-h/MBq
same,"Time-integrated activity coefficient (residence time), Heart contents",^177Lu,3.30E−02 MBq-h/MBq
same,"Time-integrated activity coefficient (residence time), Kidneys",^177Lu,7.24E−01 MBq-h/MBq
same,"Time-integrated activity coefficient (residence time), Liver",^177Lu,1.88E−01 MBq-h/MBq
same,"Time-integrated activity coefficient (residence time), Lungs",^177Lu,1.28E−01 MBq-h/MBq
same,"Time-integrated activity coefficient (residence time), Muscle",^177Lu,8.15E−01 MBq-h/MBq
same,"Time-integrated activity coefficient (residence time), Pancreas",^177Lu,9.00E−03 MBq-h/MBq
same,"Time-integrated activity coefficient (residence time), Prostate",^177Lu,1.48E−03 MBq-h/MBq
same,"Time-integrated activity coefficient (residence time), Remainder",^177Lu,4.84 MBq-h/MBq
same,"Time-integrated activity coefficient (residence time), Renal cortex",^177Lu,6.02E−01 MBq-h/MBq
same,"Time-integrated activity coefficient (residence time), Salivary Glands",^177Lu,4.97E−02 MBq-h/MBq
same,"Time-integrated activity coefficient (residence time), Small intestine",^177Lu,1.43E−02 MBq-h/MBq
same,"Time-integrated activity coefficient (residence time), Spleen",^177Lu,1.29E−02 MBq-h/MBq
same,"Time-integrated activity coefficient (residence time), Stomach",^177Lu,8.46E−03 MBq-h/MBq
same,"Time-integrated activity coefficient (residence time), ULI",^177Lu,2.64E−02 MBq-h/MBq
same,"Time-integrated activity coefficient (residence time), Ur. bladder contents",^177Lu,1.00 MBq-h/MBq
same,"highest mean absorbed dose, renal cortex",overview text b262,1.9 mGy per MBq
